Measured values from patent publication US5968581A, “Dipeptide derivatives and sweetening agents” (Ajinomoto Co., Inc., priority 1997, dated 1999).
Read-outs that look alike come from different tables or passages of the source. Residues, ends and D or L forms follow the SMILES beside them.

Tests used:
[1] = pH 3
[2] = Sensory evaluation: degree of sweetness relative to sucrose; conditions: times that of 4% sucrose solution
[3] = Stability (half-life) in acidic aqueous solution, pH 3 phosphate buffer at 70° C.

Compound | Stability (half-life, time corresponding to 50% degradation) [1] | Degree of sweetness (relative to sugar) [2] [times] | Degree of sweetness (relative to sugar) ([2]; listed as N-3,3-dimethylbutyl-α-L-aspartyl-α-methyl-L-tyrosine methyl ester) | Stability (half-life, time corresponding to 50% degradation) [3] [days] | Stability (half-life, time corresponding to 50% degradation) ([3]; listed as N-3,3-dimethylbutyl-α-L-aspartyl-α-methyl-L-tyrosine methyl. ester)
COC(=O)[C@H](Cc1ccccc1)NC(=O)[C@@H](N)CC(=O)O [aspartame] (H-Asp-Phe-OMe) | about 24 hours | – | – | – | –
COC(=O)[C@](C)(Cc1ccc(O)cc1)NC(=O)[C@H](CC(=O)O)NCCC(C)(C)C [Example 2, N-3,3-dimethylbutyl-α-L-aspartyl-α-methyl-L-tyrosine methyl ester] | – | 700 | about 700 times | 14.5 | about 347 hours
